# Experimental data reported in patent publication US20190225643A1, “NOVEL NUCLEOSIDE ANALOGS AND USE THEREOF IN THERAPEUTIC TREATMENT” (CORNELL UNIVERSITY, priority 2016, published 2019).
# Experiments:
# [1] = test system: PA-Tu-8988T pancreatic adenocarcinoma cell line; assay type: cell-based, human
# Protocol: (§1) Cell viability assays were performed by plating log-phase cells in RPMI complete media with 20% FBS at 1*10^5 cells/mL, with concentrations of 6-ETI or phospho-6-ETI ranging from 0.1 nM to 100 μM. ATP content at 24, 48 and 72 hours post-treatment was measured by the CellTiter-Glo kit (Promega, Madison, Wis.), or by Trypan blue assay as indicated. The LC50 for 6-ETI in each cell line was determined using online EC50 software at changbioscience.com or using GraphPad Prism to determine the LC50 for 6-ETI, phospho-6-ETI and nucleoside analogs in MM cell lines and primary MM patient samples.
# Pancreatic adenocarcinoma PA-Tu-8988T cell line was kindly provided by Lewis Cantley's lab (Weill Cornell Medicine). […] of ADK in this cell line was achieved by transducing these cells with ADK shRNA Lentiviral Particles (Santa crux) and selecting the stable cell line using 2 μg/ml Puromycin.
# [2] = 200 mg/kg for 9 days; cited from earlier work
# [3] = test system: DNA synthesis in BC3 cells; assay: Click-iT EdU DNA synthesis assay, BC3; assay type: cell-based, human; conditions: BC3, 1 μM, 24 hours
# Protocol: (§2) BC3 and U266 cells were seeded at a density of 0.5 million cells/ml and treated with DMSO only, 1 μM or 1.0 μM 6-ETI for BC3 cells and 0.5 μM 6-ETI for U266 cells for 24 hrs. At 24 hrs post 6-ETI treatment, 0.5 million cells of each of the treated conditions were labeled with 10 μM of EdU for 2 hours then fixed for 30 min using 2% paraformaldehyde supplemented with 0.3M sucrose. Cells were then washed in PBS and perineabilized with 0.2% saponin, PBS with 1% BSA and 0.3M sucrose for 20 min at room temperature. During this incubation time, a click-iT cocktail mix containing, click iT reaction buffer, CuSO4, alexafluor488 and click iT reaction buffer additive was prepared according to the manufacturer's instructions. Cells were washed in PBS after permeabilization and the click-iT cocktail mix was added for 30 min at room temperature in the absence of light. To visualize DNA, cells were counterstained with Hoechst (1:1000) for another 30 min then washed and resuspended in PBS with 1% BSA. 20 μl of the resuspended cells were combined with 20 μl of mounting media Fluoromount-G (Southern biotech) and cells were mounted on Ibidi μ-slides. Cells were imaged using DeltaVision image restoration microscope (Rockefeller center).
# [4] = test system: PEL cells (BC1, BC3); assay: Immunoblotting of PARP cleavage, LC3B cleavage and γH2AX in PEL cells; assay type: cell-based, human
# Protocol: For all intracellular signaling studies, cell lines were plated at 2*10^5 cells/mL or at indicated densities in RPMI-1640 with 20% FBS, and treated with the stated concentrations of 6-ETI, from 6 to 48 hours. Immunoblotting was performed using the following antibodies: PARP (BD Pharmingen, 556494), LC3B (Cell Signaling, 2775S), phospho-l-listone H2AX.X S139 (Cell Signaling, 2577S), GAPDH (Gene Tex, GTX100118), ADK (Santa Cruz, sc-365470) vFLIP 6/14 antibody was a gift from Mary Collins at University College of London, vCyclin (Abcam, ab12208), LANA (Advanced Biotechnologies, 13-210-100), β-Actin (Sigma A5316), p65 (Cell Signaling C22B4, p50 (Cell Signaling 3035), October-1 (Cell Signaling 4428), p-IκBα (Santa Cruz 3-9 sc-8404), IκBα (Santa Cruz C-21 sc-371), pIKKα/β (ser 176)(Santa Cruz sc-21661), IKKα (Santa Cruz H-744 sc-7218).
# [5] = test system: IBL1, LY7 and BCKN1 cells; assay: Viability assay at higher plating density; assay type: cell-based; conditions: 5*10^5 cells/mL versus original assay conditions
# Protocol: […] ATP content at 24, 48 and 72 hours post-treatment was measured by the CellTiter-Glo kit (Promega, Madison, Wis.), or by Trypan blue assay as indicated. The LC50 for 6-ETI in each cell line was determined using online EC50 software at changbioscience.com or using GraphPad Prism to determine the LC50 for 6-ETI, phospho-6-ETI and nucleoside analogs in MM cell lines and primary MM patient samples.
# [6] = test system: KSHV+ PEL cell lines; assay: CellTiter-Glo viability assay, KSHV+ cell line panel; assay type: cell-based, human
# Protocol: as §1
# KSHV+ primary effusion lymphoma (PEL) cell lines (BC1, BC2, BC3, BC5, BCBL1, BCP1), EBV+ lymphoblastoid cell line LCL9001, EBI+ diffuse large B-cell lymphomas (DLBCL) with immunoblastic features (IBL1, IBL4), and EBV+ effusion DLBCL BCKN1 were cultured in RPMI-1640 medium (Invitrogen) supplemented with 50 μg/mL Gentamicin (Sigma-Aldrich) and 10% or 20% heat-inactivated fetal bovine serum, respectively. Uninfected DLBCL cell lines (Ly2, Ly7) were cultured in IMDM (Invitrogen) supplemented with 50 μg/mL Gentamicin and 10% FBS. Multiple myeloma (MM) cell lines U266 and MM1S were cultured in RPMI supplemented with 15%FBS and 50 μg/mL Gentamicin, while JJN3 was cultured in 40% IMDM/40% DMEM plus 20% FBS supplemented with 50 μg/mL Gentamicin. Hodgkin's lymphoma (L428, L1236) and Burkitt's lymphoma cell lines (BJAB, Namalwa)were maintained in RPMI-1640 supplemented with Gentamicin and 10% FBS. All of the PEL cell lines and IBL1 were established in our laboratory from lymphomatous effusions except BCBL1, which was obtained from the AIDS and Cancer Specimen Bank. Burkitt lymphoma cell lines Namalwa and BJAB as well as the multiple myeloma cell line U266 were obtained from the American Type Culture Collection (ATCC). JJN3 cell line and Hodgkin cell lines (L428, L1236) were obtained from DSMZ. DLBCL cell lines LY2 and LY7 were provided by Riccardo Dana-Rivera (Columbia University), MM1S cell line was provided by Dr. Giorgio Inghiraini lab at Weill Cornell Medicine. […]
# [7] = test system: DNA synthesis in U266 cells; assay: Click-iT EdU DNA synthesis assay, MM cells; assay type: cell-based, human; conditions: 24 hrs
# Protocol: as §2
smiles,measurement,setting,value
"CCSc1ncnc2c1ncn2[C@@H]1O[C@H](CO)C(O)[C@@H]1O (some centres unmarked) [Compound 6-ETI, 6-ethylthioinosine]",change in LC50 on ADK knockdown,[1],a log increase in LC50
same,reported toxicities,[2],no reported toxicities
same,DNA synthesis (EdU incorporation),[3],complete inhibition of DNA synthesis
same,DNA damage marker γH2AX,"[4]; 1 μM and 10 μM, 24 hours",appearance of γH2AX
same,autophagy (LC3B cleavage product),"[4]; 1 μM, 24 hr",some induction of autophagy
same,apoptosis (PARP cleavage),"[4]; BC1 and BC3, 1 μM, 24 hrs",small but observable increases in apoptosis
same,LC50 change at higher cell density,[5],decreased strikingly
same,CC50,"[6]; Homo sapiens, 48 h, read-out: LC50",30 to 435 nM
same,average fold-difference in sensitivity,[6]; KSHV- versus KSHV+ cell lines,~275 X
same,LC95,[6]; PEL cell lines,~1 µM
same,DNA synthesis (EdU incorporation),[7],suppressed DNA synthesis
